# According to publication PMC5814754, “Quantitative, Wide-Spectrum Kinase Profiling in Live Cells for Assessing the Effect of Cellular ATP on Target Engagement” (Cell Chemical Biology, 2018):
# Read-outs that look alike come from different tables or passages of the source.
# How the values were obtained:
# Assay in all cases: NanoBRET single-dose fractional occupancy profiling of kinase/Nluc library in live HEK293 cells (Table S1)
# Format in all cases: binding
# Parameters in all cases: receptor occupancy: dose or concentration left out as unconfirmed; Occupancy, % Replicate 1 / Occupancy, % Replicate 2: unit of the concentration uncertain
# 178 full-length kinases [1] = molecular target: 178 full-length kinases (Homo sapiens, UniProt O95835); details: LATS1, Nluc C, probe 5 at 0.5 (unit uncertain)
# 178 full-length kinases [2] = molecular target: 178 full-length kinases (Homo sapiens, UniProt O96013); details: PAK4, Nluc C, probe 5 at 1 (unit uncertain)
# 178 full-length kinases [3] = molecular target: 178 full-length kinases (Homo sapiens, UniProt P07333); details: CSF1R, Nluc C, probe 6
# Sequence of 178 full-length kinases (Homo sapiens, UniProt P07333) (P07333 20-972): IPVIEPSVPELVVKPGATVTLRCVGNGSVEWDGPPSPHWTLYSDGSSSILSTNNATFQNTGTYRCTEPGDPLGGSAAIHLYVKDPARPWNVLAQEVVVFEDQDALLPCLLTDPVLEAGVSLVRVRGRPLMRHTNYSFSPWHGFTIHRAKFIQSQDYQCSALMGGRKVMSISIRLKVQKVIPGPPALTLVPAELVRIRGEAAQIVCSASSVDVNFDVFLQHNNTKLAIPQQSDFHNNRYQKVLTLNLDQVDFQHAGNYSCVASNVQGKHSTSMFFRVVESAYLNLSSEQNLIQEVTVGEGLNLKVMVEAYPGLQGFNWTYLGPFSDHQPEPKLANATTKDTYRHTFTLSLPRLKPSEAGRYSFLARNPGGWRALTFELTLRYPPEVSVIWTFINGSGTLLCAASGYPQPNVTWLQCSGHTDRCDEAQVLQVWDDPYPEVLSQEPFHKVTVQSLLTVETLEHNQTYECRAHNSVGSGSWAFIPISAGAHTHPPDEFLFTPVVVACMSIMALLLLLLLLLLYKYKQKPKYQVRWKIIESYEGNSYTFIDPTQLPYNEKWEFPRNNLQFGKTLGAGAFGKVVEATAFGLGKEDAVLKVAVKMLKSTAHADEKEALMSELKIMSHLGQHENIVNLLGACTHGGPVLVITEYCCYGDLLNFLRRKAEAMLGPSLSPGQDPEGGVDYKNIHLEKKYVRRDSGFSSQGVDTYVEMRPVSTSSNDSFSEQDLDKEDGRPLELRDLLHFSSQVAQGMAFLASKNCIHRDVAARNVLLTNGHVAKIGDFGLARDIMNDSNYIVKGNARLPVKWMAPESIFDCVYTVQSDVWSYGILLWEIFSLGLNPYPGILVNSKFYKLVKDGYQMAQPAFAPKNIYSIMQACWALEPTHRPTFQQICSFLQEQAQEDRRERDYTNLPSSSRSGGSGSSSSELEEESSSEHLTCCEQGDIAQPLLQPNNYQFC
# 178 full-length kinases [4] = molecular target: 178 full-length kinases (Homo sapiens, UniProt P17612); details: PRKACA, Nluc C, probe 5 at 1 (unit uncertain)
# 178 full-length kinases [5] = molecular target: 178 full-length kinases (Homo sapiens, UniProt P29597); details: TYK2 (NP_003322), Nluc orientation C, probe 5 at 1 (unit uncertain); replicate 1
# 178 full-length kinases [6] = molecular target: 178 full-length kinases (Homo sapiens, UniProt P30291); details: WEE1 (NP_003381), Nluc orientation C, probe 5 at 0.05 (unit uncertain)
# 178 full-length kinases [7] = molecular target: 178 full-length kinases (Homo sapiens, UniProt P51955); details: NEK2, Nluc N, probe 5 at 1 (unit uncertain)
# 178 full-length kinases [8] = molecular target: 178 full-length kinases (Homo sapiens, UniProt Q00532); details: CDKL1, Nluc N, probe 1 at 0.1 (unit uncertain)
# Sequence of 178 full-length kinases (Homo sapiens, UniProt Q00532) (Q00532 whole entry): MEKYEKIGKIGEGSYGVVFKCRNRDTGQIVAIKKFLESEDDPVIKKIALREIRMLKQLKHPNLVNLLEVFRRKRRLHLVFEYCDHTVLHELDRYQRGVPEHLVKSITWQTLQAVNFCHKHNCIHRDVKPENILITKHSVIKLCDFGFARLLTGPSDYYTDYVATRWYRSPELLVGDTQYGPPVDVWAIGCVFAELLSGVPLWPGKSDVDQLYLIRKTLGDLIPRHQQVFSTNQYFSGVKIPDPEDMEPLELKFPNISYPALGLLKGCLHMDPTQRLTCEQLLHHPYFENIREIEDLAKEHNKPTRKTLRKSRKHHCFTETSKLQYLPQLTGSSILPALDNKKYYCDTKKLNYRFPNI
# 178 full-length kinases [9] = molecular target: 178 full-length kinases (Homo sapiens, UniProt Q00535); details: CDK5, Nluc C, probe 5 at 1 (unit uncertain)
# Sequence of 178 full-length kinases (Homo sapiens, UniProt Q00535) (Q00535 whole entry): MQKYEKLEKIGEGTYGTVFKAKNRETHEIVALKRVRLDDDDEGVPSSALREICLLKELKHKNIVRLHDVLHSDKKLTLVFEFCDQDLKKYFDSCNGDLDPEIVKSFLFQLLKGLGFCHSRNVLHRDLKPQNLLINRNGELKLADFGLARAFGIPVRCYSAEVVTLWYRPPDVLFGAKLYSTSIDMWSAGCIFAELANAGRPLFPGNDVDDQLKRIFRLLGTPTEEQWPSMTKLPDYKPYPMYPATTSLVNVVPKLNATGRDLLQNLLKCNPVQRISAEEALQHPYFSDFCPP
# 178 full-length kinases [10] = molecular target: 178 full-length kinases (Homo sapiens, UniProt Q02156); details: PRKCE, Nluc C, probe 5 at 1 (unit uncertain)
# Sequence of 178 full-length kinases (Homo sapiens, UniProt Q02156) (Q02156 whole entry): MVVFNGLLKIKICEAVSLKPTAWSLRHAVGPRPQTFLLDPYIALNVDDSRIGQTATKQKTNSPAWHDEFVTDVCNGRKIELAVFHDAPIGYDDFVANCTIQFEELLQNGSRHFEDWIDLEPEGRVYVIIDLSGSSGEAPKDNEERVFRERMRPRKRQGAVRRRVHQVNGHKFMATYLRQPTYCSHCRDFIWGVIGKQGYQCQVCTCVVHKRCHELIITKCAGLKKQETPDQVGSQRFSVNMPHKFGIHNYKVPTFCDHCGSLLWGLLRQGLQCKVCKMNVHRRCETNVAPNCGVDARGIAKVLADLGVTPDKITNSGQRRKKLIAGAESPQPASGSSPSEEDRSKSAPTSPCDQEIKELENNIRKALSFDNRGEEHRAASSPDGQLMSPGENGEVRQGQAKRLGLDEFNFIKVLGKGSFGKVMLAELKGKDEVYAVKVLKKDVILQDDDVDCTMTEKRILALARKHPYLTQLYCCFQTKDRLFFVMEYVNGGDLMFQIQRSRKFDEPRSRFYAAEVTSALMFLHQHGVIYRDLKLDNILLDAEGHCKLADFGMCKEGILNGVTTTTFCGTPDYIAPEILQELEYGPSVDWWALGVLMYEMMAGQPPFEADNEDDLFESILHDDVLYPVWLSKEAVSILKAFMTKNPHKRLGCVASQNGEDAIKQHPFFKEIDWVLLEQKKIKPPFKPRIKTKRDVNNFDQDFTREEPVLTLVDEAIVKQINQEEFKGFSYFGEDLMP
# 178 full-length kinases [11] = molecular target: 178 full-length kinases (Homo sapiens, UniProt Q13237); details: PRKG2, Nluc C, probe 5 at 1 (unit uncertain)
# 178 full-length kinases [12] = molecular target: 178 full-length kinases (Homo sapiens, UniProt Q13882); details: PTK6, Nluc C, probe 6 at 0.5 (unit uncertain)
# 178 full-length kinases [13] = molecular target: 178 full-length kinases (Homo sapiens, UniProt Q15349); details: RPS6KA2 (NP_001305865), Nluc orientation N, probe 5 at 0.5 (unit uncertain)
# 178 full-length kinases [14] = molecular target: 178 full-length kinases (Homo sapiens, UniProt Q16539); details: MAPK14, Nluc C, probe 6 at 0.1 (unit uncertain)
# 178 full-length kinases [15] = molecular target: 178 full-length kinases (Homo sapiens, UniProt Q16832); details: DDR2, Nluc C, probe 6 at 0.1 (unit uncertain)
# 178 full-length kinases [16] = molecular target: 178 full-length kinases (Homo sapiens, UniProt Q96L34); details: MARK4, Nluc N, probe 5 at 1 (unit uncertain)
# Sequence of 178 full-length kinases (Homo sapiens, UniProt Q96L34) (Q96L34 whole entry): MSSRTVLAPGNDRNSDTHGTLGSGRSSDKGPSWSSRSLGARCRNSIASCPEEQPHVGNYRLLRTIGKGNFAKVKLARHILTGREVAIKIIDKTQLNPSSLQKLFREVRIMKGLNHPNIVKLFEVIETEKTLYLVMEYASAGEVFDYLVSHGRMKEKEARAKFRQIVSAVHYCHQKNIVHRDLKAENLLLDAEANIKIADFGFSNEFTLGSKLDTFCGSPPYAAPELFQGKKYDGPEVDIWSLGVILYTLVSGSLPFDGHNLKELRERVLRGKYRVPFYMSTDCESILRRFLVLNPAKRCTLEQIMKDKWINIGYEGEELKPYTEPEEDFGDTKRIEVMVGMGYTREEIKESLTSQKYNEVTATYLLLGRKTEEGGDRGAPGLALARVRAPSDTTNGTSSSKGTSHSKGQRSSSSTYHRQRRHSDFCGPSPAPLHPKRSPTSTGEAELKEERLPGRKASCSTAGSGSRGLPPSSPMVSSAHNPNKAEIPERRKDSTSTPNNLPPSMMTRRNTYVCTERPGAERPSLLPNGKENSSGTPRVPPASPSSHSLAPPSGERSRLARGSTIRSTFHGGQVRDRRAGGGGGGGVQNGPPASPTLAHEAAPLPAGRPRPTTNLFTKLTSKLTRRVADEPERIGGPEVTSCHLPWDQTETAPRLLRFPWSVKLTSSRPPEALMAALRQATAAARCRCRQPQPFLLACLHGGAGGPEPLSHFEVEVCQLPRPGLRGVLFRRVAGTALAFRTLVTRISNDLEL
# 178 full-length kinases [17] = molecular target: 178 full-length kinases (Homo sapiens, UniProt Q9Y2K2); details: SIK3 (NP_079440), Nluc orientation N, probe 6 at 1 (unit uncertain)
# Sequence of 178 full-length kinases (Homo sapiens, UniProt Q9Y2K2) (Q9Y2K2 whole entry): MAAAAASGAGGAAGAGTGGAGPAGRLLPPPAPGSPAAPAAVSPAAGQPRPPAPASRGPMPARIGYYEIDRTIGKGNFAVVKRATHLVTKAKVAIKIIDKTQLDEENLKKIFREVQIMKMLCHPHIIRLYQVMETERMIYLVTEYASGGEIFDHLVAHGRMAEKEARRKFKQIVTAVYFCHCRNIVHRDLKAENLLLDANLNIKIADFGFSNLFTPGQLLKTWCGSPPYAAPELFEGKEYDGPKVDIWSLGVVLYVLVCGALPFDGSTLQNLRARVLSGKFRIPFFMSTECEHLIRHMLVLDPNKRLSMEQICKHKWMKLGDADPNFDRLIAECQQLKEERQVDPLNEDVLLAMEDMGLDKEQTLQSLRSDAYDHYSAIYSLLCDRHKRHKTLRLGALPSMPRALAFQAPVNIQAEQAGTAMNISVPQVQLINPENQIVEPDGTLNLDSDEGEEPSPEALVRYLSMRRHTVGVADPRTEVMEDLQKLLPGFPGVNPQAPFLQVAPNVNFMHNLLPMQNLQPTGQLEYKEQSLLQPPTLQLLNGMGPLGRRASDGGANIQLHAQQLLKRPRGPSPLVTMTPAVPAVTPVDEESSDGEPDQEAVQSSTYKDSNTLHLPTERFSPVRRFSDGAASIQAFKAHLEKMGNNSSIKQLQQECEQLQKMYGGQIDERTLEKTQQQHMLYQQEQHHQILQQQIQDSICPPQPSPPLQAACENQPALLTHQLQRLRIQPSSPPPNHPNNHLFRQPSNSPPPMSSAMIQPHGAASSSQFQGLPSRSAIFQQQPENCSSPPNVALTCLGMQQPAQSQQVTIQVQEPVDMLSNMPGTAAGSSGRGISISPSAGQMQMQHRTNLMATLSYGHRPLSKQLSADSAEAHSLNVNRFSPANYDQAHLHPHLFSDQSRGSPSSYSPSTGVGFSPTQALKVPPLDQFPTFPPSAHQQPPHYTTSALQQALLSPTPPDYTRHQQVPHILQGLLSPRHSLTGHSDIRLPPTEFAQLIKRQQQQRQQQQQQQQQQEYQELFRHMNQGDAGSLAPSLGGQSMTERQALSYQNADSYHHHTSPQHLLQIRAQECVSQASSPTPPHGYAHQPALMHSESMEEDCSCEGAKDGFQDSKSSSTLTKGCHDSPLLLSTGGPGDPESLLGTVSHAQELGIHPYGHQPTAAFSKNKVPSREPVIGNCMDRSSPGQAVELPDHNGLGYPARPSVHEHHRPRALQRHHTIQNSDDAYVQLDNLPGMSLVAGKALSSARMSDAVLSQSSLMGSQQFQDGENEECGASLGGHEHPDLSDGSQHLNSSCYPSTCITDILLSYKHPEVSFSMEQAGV
# 178 full-length kinases [18] = molecular target: 178 full-length kinases (Homo sapiens, UniProt Q9Y463); details: DYRK1B, Nluc N, probe 5 at 1 (unit uncertain)
# Sequence of 178 full-length kinases (Homo sapiens, UniProt Q9Y463) (Q9Y463 whole entry): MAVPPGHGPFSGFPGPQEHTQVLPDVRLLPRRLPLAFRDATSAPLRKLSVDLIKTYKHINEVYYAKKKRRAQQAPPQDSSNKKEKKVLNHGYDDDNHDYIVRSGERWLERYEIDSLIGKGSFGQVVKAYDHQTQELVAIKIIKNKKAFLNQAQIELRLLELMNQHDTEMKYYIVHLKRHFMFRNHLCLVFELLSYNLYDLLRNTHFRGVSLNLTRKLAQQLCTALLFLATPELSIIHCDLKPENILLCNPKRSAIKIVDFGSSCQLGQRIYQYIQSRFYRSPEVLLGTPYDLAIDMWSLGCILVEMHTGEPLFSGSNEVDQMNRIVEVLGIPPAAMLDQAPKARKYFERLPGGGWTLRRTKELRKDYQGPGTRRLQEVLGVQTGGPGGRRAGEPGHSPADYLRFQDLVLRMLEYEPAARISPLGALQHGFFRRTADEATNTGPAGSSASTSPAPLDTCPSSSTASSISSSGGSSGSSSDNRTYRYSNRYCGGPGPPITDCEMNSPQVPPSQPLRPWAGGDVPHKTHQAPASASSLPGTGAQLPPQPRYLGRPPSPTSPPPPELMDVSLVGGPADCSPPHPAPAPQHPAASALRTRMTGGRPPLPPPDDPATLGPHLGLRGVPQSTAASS
smiles,measurement,setting,value
C[C@@H](Oc1cc(-c2cnn(C3CCNCC3)c2)cnc1N)c1c(Cl)ccc(F)c1Cl [Crizotinib],"Occupancy, % Replicate 1",178 full-length kinases [1],No Binding
same,"Occupancy, % Replicate 2",178 full-length kinases [2],No Binding
same,receptor occupancy,"178 full-length kinases [3]; read-out: Occupancy, % Replicate 1",12%
same,receptor occupancy,"178 full-length kinases [3]; read-out: Occupancy, % Replicate 2",12%
same,"Occupancy, % Replicate 1",178 full-length kinases [4],No Binding
same,"Occupancy, % Replicate 2",178 full-length kinases [4],No Binding
same,"Occupancy, % Replicate 1",178 full-length kinases [5],No Binding
same,"Occupancy, % Replicate 1",178 full-length kinases [6]; replicate 1,No Binding
same,"Occupancy, % Replicate 2",178 full-length kinases [6]; replicate 2,No Binding
same,"Occupancy, % Replicate 1",178 full-length kinases [7],No Binding
same,"Occupancy, % Replicate 1",178 full-length kinases [8],No Binding
same,"Occupancy, % Replicate 2",178 full-length kinases [8],No Binding
same,"Occupancy, % Replicate 1",178 full-length kinases [9],No Binding
same,"Occupancy, % Replicate 2",178 full-length kinases [9],No Binding
same,"Occupancy, % Replicate 1",178 full-length kinases [10],No Binding
same,"Occupancy, % Replicate 2",178 full-length kinases [10],No Binding
same,"Occupancy, % Replicate 2",178 full-length kinases [11],No Binding
same,"Occupancy, % Replicate 2",178 full-length kinases [12],No Binding
same,"Occupancy, % Replicate 1",178 full-length kinases [13]; replicate 1,No Binding
same,"Occupancy, % Replicate 2",178 full-length kinases [13]; replicate 2,No Binding
same,"Occupancy, % Replicate 1",178 full-length kinases [14],No Binding
same,"Occupancy, % Replicate 2",178 full-length kinases [14],No Binding
same,"Occupancy, % Replicate 1",178 full-length kinases [15],No Binding
same,"Occupancy, % Replicate 1",178 full-length kinases [16],No Binding
same,"Occupancy, % Replicate 2",178 full-length kinases [16],No Binding
same,"Occupancy, % Replicate 1",178 full-length kinases [17]; replicate 1,No Binding
same,"Occupancy, % Replicate 2",178 full-length kinases [17]; replicate 2,No Binding
same,"Occupancy, % Replicate 1",178 full-length kinases [18],No Binding
same,"Occupancy, % Replicate 2",178 full-length kinases [18],No Binding
